Data from ChEMBL document CHEMBL1255176, “Novel dihydropyrimidines as a potential new class of antitubercular agents” (2010).
In brackets after ≈: the same amount, converted by molar mass.

Test system: Mycobacterium tuberculosis
Assay: Antitubercular activity against Mycobacterium tuberculosis H37Rv at 6.25 ug/ml by microplate alamar blue assay
Type: functional

Q: Which inhibition at 6.25 µg/mL does the source give for `CCOC(=O)C1=C(C)NC(=O)NC1c1cn(-c2ccccc2)nc1-c1ccc(C)cc1` (centres undefined) here?
A: 68%

Q: For `COC(=O)C1=C(C)NC(=S)NC1c1cn(-c2ccccc2)nc1-c1ccc(Br)cc1` (centres undefined), which inhibition at 6.25 µg/mL is on record?
A: 43%

Q: With `COC(=O)C1=C(C)NC(=S)NC1c1cn(-c2ccccc2)nc1-c1ccc([N+](=O)[O-])cc1` (centres undefined) as the molecule, how does the inhibition at 6.25 µg/mL read?
A: 91%

Q: For `COC(=O)C1=C(C)NC(=S)NC1c1cn(-c2ccccc2)nc1-c1ccc(C)cc1` (centres undefined), which inhibition at 6.25 µg/mL is on record?
A: 46%

Q: With `COC(=O)C1=C(C)NC(=O)NC1c1cn(-c2ccccc2)nc1-c1ccc(F)cc1` (centres undefined) as the molecule, how does the inhibition at 6.25 µg/mL read?
A: 62%

Q: With `COC(=O)C1=C(C)NC(=O)NC1c1cn(-c2ccccc2)nc1-c1ccc(Cl)cc1` (centres undefined) as the molecule, how does the inhibition at 6.25 µg/mL read?
A: 75%

Q: For `COC(=O)C1=C(C)NC(=O)NC1c1cn(-c2ccccc2)nc1-c1ccc(Br)cc1` (centres undefined), which inhibition at 6.25 µg/mL is on record?
A: 90%

Q: With `COC(=O)C1=C(C)NC(=O)NC1c1cn(-c2ccccc2)nc1-c1ccc([N+](=O)[O-])cc1` (centres undefined) as the molecule, how does the inhibition at 6.25 µg/mL read?
A: 39%

Q: With `CCOC(=O)C1=C(C)NC(SC)NC1c1cn(-c2ccccc2)nc1-c1ccc(F)cc1` (centres undefined) as the molecule, how does the inhibition at 6.25 µg/mL read?
A: 8%

Q: With `CCOC(=O)C1=C(C)NC(SC)NC1c1cn(-c2ccccc2)nc1-c1ccc(Cl)cc1` (centres undefined) as the molecule, how does the inhibition at 6.25 µg/mL read?
A: 13%

Q: Which inhibition at 6.25 µg/mL does the source give for `CCOC(=O)C1=C(C)NC(SC)NC1c1cn(-c2ccccc2)nc1-c1ccc(Br)cc1` (centres undefined) here?
A: 13%

Q: Which inhibition at 6.25 µg/mL does the source give for `CCOC(=O)C1=C(C)NC(SC)NC1c1cn(-c2ccccc2)nc1-c1ccc([N+](=O)[O-])cc1` (centres undefined) here?
A: 37%

Q: Which inhibition at 6.25 µg/mL does the source give for `CCOC(=O)C1=C(C)NC(SC)NC1c1cn(-c2ccccc2)nc1-c1ccc(C)cc1` (centres undefined) here?
A: 97%

Q: Which inhibition at 6.25 µg/mL does the source give for `CCOC(=O)C1=C(C)NC(=O)NC1c1cn(-c2ccccc2)nc1-c1ccc([N+](=O)[O-])cc1` (centres undefined) here?
A: 100%

Q: With `CCOC(=O)C1=C(C)NC(=N)NC1c1cn(-c2ccccc2)nc1-c1ccc([N+](=O)[O-])cc1` (centres undefined) as the molecule, how does the inhibition at 6.25 µg/mL read?
A: 58%

Q: Which inhibition at 6.25 µg/mL does the source give for `CCOC(=O)C1=C(C)NC(=S)NC1c1cn(-c2ccccc2)nc1-c1ccc(Cl)cc1` (centres undefined) here?
A: 75%

Q: Which inhibition at 6.25 µg/mL does the source give for `CCOC(=O)C1=C(C)NC(=S)NC1c1cn(-c2ccccc2)nc1-c1ccc(Br)cc1` (centres undefined) here?
A: 87%

Q: With `COC(=O)C1=C(C)NC(=O)NC1c1cn(-c2ccccc2)nc1-c1ccc(C)cc1` (centres undefined) as the molecule, how does the inhibition at 6.25 µg/mL read?
A: 98%

Q: With `CCOC(=O)C1=C(C)NC(=O)NC1c1cn(-c2ccccc2)nc1-c1ccc(F)cc1` (centres undefined) as the molecule, how does the inhibition at 6.25 µg/mL read?
A: 100%

Q: Which inhibition at 6.25 µg/mL does the source give for `CCOC(=O)C1=C(C)NC(=O)NC1c1cn(-c2ccccc2)nc1-c1ccc(Cl)cc1` (centres undefined) here?
A: 49%

Q: With `CCOC(=O)C1=C(C)NC(=O)NC1c1cn(-c2ccccc2)nc1-c1ccc(Br)cc1` (centres undefined) as the molecule, how does the inhibition at 6.25 µg/mL read?
A: 33%

Q: Which inhibition at 6.25 µg/mL does the source give for `CCOC(=O)C1=C(C)NC(=S)NC1c1cn(-c2ccccc2)nc1-c1ccc(F)cc1` (centres undefined) here?
A: 30%

Q: Which inhibition at 6.25 µg/mL does the source give for `CCOC(=O)C1=C(C)NC(=S)NC1c1cn(-c2ccccc2)nc1-c1ccc([N+](=O)[O-])cc1` (centres undefined) here?
A: 92%

Q: For `CCOC(=O)C1=C(C)NC(=S)NC1c1cn(-c2ccccc2)nc1-c1ccc(C)cc1` (centres undefined), which inhibition at 6.25 µg/mL is on record?
A: 96%

Q: With `CCOC(=O)C1=C(C)NC(=N)NC1c1cn(-c2ccccc2)nc1-c1ccc(F)cc1` (centres undefined) as the molecule, how does the inhibition at 6.25 µg/mL read?
A: 18%

Q: For `CCOC(=O)C1=C(C)NC(=N)NC1c1cn(-c2ccccc2)nc1-c1ccc(Cl)cc1` (centres undefined), which inhibition at 6.25 µg/mL is on record?
A: 94%

Q: For `CCOC(=O)C1=C(C)NC(=N)NC1c1cn(-c2ccccc2)nc1-c1ccc(Br)cc1` (centres undefined), which inhibition at 6.25 µg/mL is on record?
A: 51%

Q: Which inhibition at 6.25 µg/mL does the source give for `CCOC(=O)C1=C(C)NC(=N)NC1c1cn(-c2ccccc2)nc1-c1ccc(C)cc1` (centres undefined) here?
A: 78%

Q: Which inhibition at 6.25 µg/mL does the source give for `COC(=O)C1=C(C)NC(=S)NC1c1cn(-c2ccccc2)nc1-c1ccc(F)cc1` (centres undefined) here?
A: 73%

Q: With `COC(=O)C1=C(C)NC(=S)NC1c1cn(-c2ccccc2)nc1-c1ccc(Cl)cc1` (centres undefined) as the molecule, how does the inhibition at 6.25 µg/mL read?
A: 68%

Test system: Mycobacterium tuberculosis
Assay: Antitubercular activity against Mycobacterium tuberculosis H37Rv by twofold dilution method
Type: functional

Q: Which MIC does the source give for `COC(=O)C1=C(C)NC(=S)NC1c1cn(-c2ccccc2)nc1-c1ccc([N+](=O)[O-])cc1` (centres undefined) here?
A: 3.13 µg/mL (≈ 6.96 µM)

Q: With `COC(=O)C1=C(C)NC(=O)NC1c1cn(-c2ccccc2)nc1-c1ccc(Br)cc1` (centres undefined) as the molecule, how does the MIC read?
A: 6.25 µg/mL (≈ 13.4 µM)

Q: For `CCOC(=O)C1=C(C)NC(SC)NC1c1cn(-c2ccccc2)nc1-c1ccc(C)cc1` (centres undefined), which MIC is on record?
A: 1.56 µg/mL (≈ 3.48 µM)

Q: Which MIC does the source give for `CCOC(=O)C1=C(C)NC(=O)NC1c1cn(-c2ccccc2)nc1-c1ccc([N+](=O)[O-])cc1` (centres undefined) here?
A: 0.02 µg/mL (≈ 0.0447 µM)

Q: For `COC(=O)C1=C(C)NC(=O)NC1c1cn(-c2ccccc2)nc1-c1ccc(C)cc1` (centres undefined), which MIC is on record?
A: 1.56 µg/mL (≈ 3.88 µM)

Q: With `CCOC(=O)C1=C(C)NC(=O)NC1c1cn(-c2ccccc2)nc1-c1ccc(F)cc1` (centres undefined) as the molecule, how does the MIC read?
A: 0.02 µg/mL (≈ 0.0476 µM)

Q: With `CCOC(=O)C1=C(C)NC(=S)NC1c1cn(-c2ccccc2)nc1-c1ccc([N+](=O)[O-])cc1` (centres undefined) as the molecule, how does the MIC read?
A: 3.13 µg/mL (≈ 6.75 µM)

Q: Which MIC does the source give for `CCOC(=O)C1=C(C)NC(=S)NC1c1cn(-c2ccccc2)nc1-c1ccc(C)cc1` (centres undefined) here?
A: 1.56 µg/mL (≈ 3.61 µM)

Q: With `CCOC(=O)C1=C(C)NC(=N)NC1c1cn(-c2ccccc2)nc1-c1ccc(Cl)cc1` (centres undefined) as the molecule, how does the MIC read?
A: 3.13 µg/mL (≈ 7.18 µM)

Q: For `NNC(=O)c1ccncc1` [ISONIAZID], which MIC is on record?
A: 0.03 µg/mL (≈ 0.219 µM)

Test system: not listed separately
Assay: Selectivity index, ratio of IC50 for african green monkey Vero cells to MIC for Mycobacterium tuberculosis H37Rv
Type: functional

Q: For `COC(=O)C1=C(C)NC(=S)NC1c1cn(-c2ccccc2)nc1-c1ccc([N+](=O)[O-])cc1` (centres undefined), which “Selectivity Index” value is on record?
A: 3

Q: Which “Selectivity Index” value does the source give for `COC(=O)C1=C(C)NC(=O)NC1c1cn(-c2ccccc2)nc1-c1ccc(Br)cc1` (centres undefined) here?
A: >1.6

Q: Which “Selectivity Index” value does the source give for `CCOC(=O)C1=C(C)NC(SC)NC1c1cn(-c2ccccc2)nc1-c1ccc(C)cc1` (centres undefined) here?
A: 4.7

Q: Which “Selectivity Index” value does the source give for `CCOC(=O)C1=C(C)NC(=O)NC1c1cn(-c2ccccc2)nc1-c1ccc([N+](=O)[O-])cc1` (centres undefined) here?
A: >500

Q: With `COC(=O)C1=C(C)NC(=O)NC1c1cn(-c2ccccc2)nc1-c1ccc(C)cc1` (centres undefined) as the molecule, how does the “Selectivity Index” value read?
A: >6.4

Q: Which “Selectivity Index” value does the source give for `CCOC(=O)C1=C(C)NC(=O)NC1c1cn(-c2ccccc2)nc1-c1ccc(F)cc1` (centres undefined) here?
A: >500

Q: With `CCOC(=O)C1=C(C)NC(=S)NC1c1cn(-c2ccccc2)nc1-c1ccc([N+](=O)[O-])cc1` (centres undefined) as the molecule, how does the “Selectivity Index” value read?
A: >3.2

Q: With `CCOC(=O)C1=C(C)NC(=S)NC1c1cn(-c2ccccc2)nc1-c1ccc(C)cc1` (centres undefined) as the molecule, how does the “Selectivity Index” value read?
A: 5.7

Q: Which “Selectivity Index” value does the source give for `CCOC(=O)C1=C(C)NC(=N)NC1c1cn(-c2ccccc2)nc1-c1ccc(Cl)cc1` (centres undefined) here?
A: >3.2
